Measurements taken from ChEMBL document CHEMBL5316285 (J Med Chem, 2023).
Activity calls are given as the source filed them. The calls are words filed in the database; no cut-off is given here.

Assays:
[1] = target: T1, von Hippel-Lindau disease tumor suppressor/Nicotinamide phosphoribosyltransferase (Homo sapiens, UniProt P43490+P40337); assay: Protac activity at VHL/NAMPT in human A2780 cells assessed as degradation of NAMPT using NAM as substrate preincubated for 5 mins followed by substrate addition measured after 5 mins in presence of ATP by luminesence based microplate reader analysis; format: cell-based
Target sequence in this assay (P43490 whole entry): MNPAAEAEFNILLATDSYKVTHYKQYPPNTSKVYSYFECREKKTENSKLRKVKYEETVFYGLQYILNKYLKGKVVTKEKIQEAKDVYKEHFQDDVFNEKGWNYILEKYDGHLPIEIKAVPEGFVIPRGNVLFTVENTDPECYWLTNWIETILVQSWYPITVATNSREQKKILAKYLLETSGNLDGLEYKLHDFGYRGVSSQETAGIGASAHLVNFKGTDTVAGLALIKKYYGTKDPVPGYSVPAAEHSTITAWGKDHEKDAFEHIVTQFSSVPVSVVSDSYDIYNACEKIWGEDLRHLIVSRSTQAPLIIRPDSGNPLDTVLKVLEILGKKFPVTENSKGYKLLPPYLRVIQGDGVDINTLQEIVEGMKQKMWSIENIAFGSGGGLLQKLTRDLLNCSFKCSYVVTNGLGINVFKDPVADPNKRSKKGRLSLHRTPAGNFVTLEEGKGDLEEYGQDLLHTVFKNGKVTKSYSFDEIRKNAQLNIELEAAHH
Target sequence in this assay (P40337 whole entry): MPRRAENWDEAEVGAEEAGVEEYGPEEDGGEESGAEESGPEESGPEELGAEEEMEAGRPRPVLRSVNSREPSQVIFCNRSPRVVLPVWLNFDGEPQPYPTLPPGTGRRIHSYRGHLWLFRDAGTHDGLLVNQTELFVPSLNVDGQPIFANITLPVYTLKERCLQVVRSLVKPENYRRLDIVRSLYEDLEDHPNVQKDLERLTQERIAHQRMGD

[2] = target: Nicotinamide phosphoribosyltransferase (Homo sapiens, UniProt P43490); assay: Inhibition of NAMPT (unknown origin) using NAM as substrate preincubated for 5 mins followed by substrate addition measured after 15 mins in presence of ATP by fluorescence based microplate reader analysis
Chain of Nicotinamide phosphoribosyltransferase (P43490 whole entry): as the sequence (P43490 whole entry) above

[3] = tested on: A2780; assay: Antiproliferative activity against human A2780 cells incubated for 72 hrs in carbon-dioxide atmosphere measured by cell counting kit-8 method; format: functional, cell-based; conditions: A2780, 72 h
[4] = target: T1, von Hippel-Lindau disease tumor suppressor/Nicotinamide phosphoribosyltransferase; assay: Protac activity at VHL/NAMPT in human A2780 cells assessed as induction of NAMPT degradation measured at 0.2 to 500 nM after 24 hrs by Western blotting analysis; format: cell-based; conditions: dose 0.2-500 nM
Target sequence in this assay (P40337 whole entry, looked up): as the sequence (P40337 whole entry) above
Target sequence in this assay (P43490 whole entry, looked up): as the sequence (P43490 whole entry) above

[5] = target: T1, von Hippel-Lindau disease tumor suppressor/Nicotinamide phosphoribosyltransferase; assay: Protac activity at VHL/NAMPT in human A2780 cells assessed as reduction of NAMPT protein level at 10 nM measured after 24 hrs by Western blotting analysis; format: cell-based
Target sequence in this assay (P40337 whole entry, looked up): as the sequence (P40337 whole entry) above
Target sequence in this assay (P43490 whole entry, looked up): as the sequence (P43490 whole entry) above

[6] = target: T1, von Hippel-Lindau disease tumor suppressor/Nicotinamide phosphoribosyltransferase; assay: Protac activity at VHL/NAMPT in human A2780 cells assessed as induction of NAMPT degradation measured at 0.005 to 10 microM after 24 hrs by Western blotting analysis; format: cell-based; conditions: dose 0.005-10 µM
Target sequence in this assay (P40337 whole entry, looked up): as the sequence (P40337 whole entry) above
Target sequence in this assay (P43490 whole entry, looked up): as the sequence (P43490 whole entry) above

[7] = target: T1, von Hippel-Lindau disease tumor suppressor/Nicotinamide phosphoribosyltransferase; assay: Protac activity at VHL/NAMPT in human A2780 cells assessed as induction of NAMPT degradation measured at 500 to 5000 nM after 24 hrs by Western blotting analysis; format: cell-based; conditions: dose 500-5000 nM
Target sequence in this assay (P40337 whole entry, looked up): as the sequence (P40337 whole entry) above
Target sequence in this assay (P43490 whole entry, looked up): as the sequence (P43490 whole entry) above

[8] = target: T1, von Hippel-Lindau disease tumor suppressor/Nicotinamide phosphoribosyltransferase; assay: Protac activity at VHL/NAMPT in human A2780 cells assessed as induction of NAMPT degradation measured at 5 to 50 nM after 24 hrs by Western blotting analysis; format: cell-based; conditions: dose 5-50 nM
Target sequence in this assay (P40337 whole entry, looked up): as the sequence (P40337 whole entry) above
Target sequence in this assay (P43490 whole entry, looked up): as the sequence (P43490 whole entry) above

[9] = Toxicity in nude mouse xenografted with human A2780 cells assessed as loss in body weight at 2 uM/Kg, IV once every 3 days upto 21 days; conditions: 504 h, time 21 day
[10] = Toxicity in nude mouse xenografted with human A2780 cells assessed as pathological damage in kidney at 2 uM/Kg, IV once every 3 days upto 21 days by hematoxylin and eosin staining analysis; format: tissue-based; conditions: 504 h, time 21 day
[11] = tested on: A2780; assay: Antitumor activity against human A2780 cells xenografted in nude mouse assessed as tumor growth inhibition at 2 uM/Kg, IV once every 3 days upto 21 days relative to control; format: functional; conditions: time 21 day, at 2 µmol/kg
[12] = Retinal toxicity in nude mouse xenografted with human A2780 cells at 2 uM/Kg, IV once every 3 days upto 21 days by microscopic analysis; conditions: 504 h, time 21 day
[13] = Toxicity in nude mouse xenografted with human A2780 cells assessed as pathological damage in lung at 2 uM/Kg, IV once every 3 days upto 21 days by hematoxylin and eosin staining analysis; format: tissue-based; conditions: 504 h, time 21 day
[14] = target: T1, von Hippel-Lindau disease tumor suppressor/Nicotinamide phosphoribosyltransferase; assay: Protac activity at VHL/NAMPT in human A2780 cells assessed as reduction of NAMPT protein level at 0.1 to 100 nM measured after 24 hrs by Western blotting analysis; format: cell-based; conditions: dose 0.1-100 nM
Target sequence in this assay (P40337 whole entry, looked up): as the sequence (P40337 whole entry) above
Target sequence in this assay (P43490 whole entry, looked up): as the sequence (P43490 whole entry) above

[15] = tested on: CT26; assay: Antiproliferative activity against mouse CT26 cells; format: functional, cell-based

DC50 [1] [nM]	IC50 [2] [nM]	IC50 [3] [nM]	SMILES	other results
93	130	56	Cc1ncsc1-c1ccc([C@H](C)NC(=O)[C@@H]2C[C@@H](O)CN2C(=O)[C@@H](NC(=O)COCCOCCOCCN2CCN(S(=O)(=O)c3ccc(NC(=O)NCc4cccnc4)cc3)CC2)C(C)(C)C)cc1	Activity [4]: Dose-Dependent Effect
50	94	487	Cc1ncsc1-c1ccc([C@H](C)NC(=O)[C@@H]2C[C@@H](O)CN2C(=O)[C@@H](NC(=O)COCCOCCOCCn2cc(CCN3CCN(S(=O)(=O)c4ccc(NC(=O)NCc5cccnc5)cc4)CC3)nn2)C(C)(C)C)cc1	Activity [7]: Active; Activity [8]: inactive
22	190	133	Cc1ncsc1-c1ccc([C@H](C)NC(=O)[C@@H]2C[C@@H](O)CN2C(=O)[C@@H](NC(=O)COCCOCCOCCOCCOCCN2CCN(S(=O)(=O)c3ccc(NC(=O)NCc4cccnc4)cc3)CC2)C(C)(C)C)cc1	Activity [4]: Dose-Dependent Effect
19	130	173	Cc1ncsc1-c1ccc([C@H](C)NC(=O)[C@@H]2C[C@@H](O)CN2C(=O)[C@@H](NC(=O)COCCOCCOCCOCCN2CCN(S(=O)(=O)c3ccc(NC(=O)NCc4cccnc4)cc3)CC2)C(C)(C)C)cc1	Activity [4]: Dose-Dependent Effect
50	83	401	Cc1ncsc1-c1ccc([C@H](C)NC(=O)[C@@H]2C[C@@H](O)CN2C(=O)[C@@H](NC(=O)COCCOCCOCCOCCn2cc(CCN3CCN(S(=O)(=O)c4ccc(NC(=O)NCc5cccnc5)cc4)CC3)nn2)C(C)(C)C)cc1	Activity [7]: Active; Activity [8]: inactive
50	970	477	Cc1ncsc1-c1ccc([C@H](C)NC(=O)[C@@H]2C[C@@H](O)CN2C(=O)[C@@H](NC(=O)COCCOCCOCCOCCOCCn2cc(CCN3CCN(S(=O)(=O)c4ccc(NC(=O)NCc5cccnc5)cc4)CC3)nn2)C(C)(C)C)cc1	Activity [7]: Active; Activity [8]: inactive
> 100	150	1230	Cc1ncsc1-c1ccc([C@H](C)NC(=O)[C@@H]2C[C@@H](O)CN2C(=O)[C@@H](NC(=O)COCCOCCN2CCN(S(=O)(=O)c3ccc(NC(=O)NCc4cccnc4)cc3)CC2)C(C)(C)C)cc1	Activity [14]: inactive
50	190	737	Cc1ncsc1-c1ccc([C@H](C)NC(=O)[C@@H]2C[C@@H](O)CN2C(=O)[C@@H](NC(=O)COCCOCCn2cc(CCN3CCN(S(=O)(=O)c4ccc(NC(=O)NCc5cccnc5)cc4)CC3)nn2)C(C)(C)C)cc1	Activity [7]: Active; Activity [8]: inactive
50	120	433	Cc1ncsc1-c1ccc([C@H](C)NC(=O)[C@@H]2C[C@@H](O)CN2C(=O)[C@@H](NC(=O)COCCn2cc(CCN3CCN(S(=O)(=O)c4ccc(NC(=O)NCc5cccnc5)cc4)CC3)nn2)C(C)(C)C)cc1	Activity [7]: Active; Activity [8]: inactive
> 100	160	5510	Cc1ncsc1-c1ccc([C@H](C)NC(=O)[C@@H]2C[C@@H](O)CN2C(=O)[C@@H](NC(=O)COCCN2CCN(S(=O)(=O)c3ccc(NC(=O)NCc4cccnc4)cc3)CC2)C(C)(C)C)cc1	Activity [14]: inactive

Further lines, the molecule ahead of its results:

SMILES	DC50 [1] [nM]	IC50 [2] [nM]	IC50 [3] [nM]	other results
Cc1ncsc1-c1ccc([C@H](C)NC(=O)[C@@H]2C[C@@H](O)CN2C(=O)[C@@H](NC(=O)CCCCCCCN2CCN(S(=O)(=O)c3ccc(NC(=O)NCc4cccnc4)cc3)CC2)C(C)(C)C)cc1	> 100	100	5.9	
Cc1ncsc1-c1ccc([C@H](C)NC(=O)[C@H]2C[C@H](O)CN2C(=O)[C@@H](NC(=O)CCCCCCCCN2CCN(S(=O)(=O)c3ccc(NC(=O)NCc4cccnc4)cc3)CC2)C(C)(C)C)cc1	> 10000	110	707	
Cc1ncsc1-c1ccc([C@H](C)NC(=O)[C@@H]2C[C@@H](O)CN2C(=O)[C@@H](NC(=O)CCCCCCCCCCN2CCN(S(=O)(=O)c3ccc(NC(=O)NCc4cccnc4)cc3)CC2)C(C)(C)C)cc1	< 4.6	230	30	Activity [5]: Active; Activity [6]: Dose-Dependent Effect
CC(=O)N[C@H](C(=O)N1C[C@H](O)C[C@H]1C(=O)N[C@@H](C)c1ccc(-c2scnc2C)cc1)C(C)(C)C		> 2000	> 100000	
O=C(/C=C/c1cccnc1)NCCCCC1CCN(C(=O)c2ccccc2)CC1 [DAPORINAD]			0.28	Activity [9]: Toxic; Activity [10]: Toxic; TGI [11]: 62.9%; Activity [12]: Non-Toxic; Activity [13]: Toxic
Cc1ncsc1-c1ccc([C@H](C)NC(=O)[C@@H]2C[C@@H](O)CN2C(=O)[C@@H](NC(=O)CCCCCCCCCN2CCN(S(=O)(=O)c3ccc(NC(=O)NCc4cccnc4)cc3)CC2)C(C)(C)C)cc1	1.5	190	10	Activity [5]: Active; Activity [6]: Dose-Dependent Effect
Cc1ncsc1-c1ccc([C@H](C)NC(=O)[C@@H]2C[C@@H](O)CN2C(=O)[C@@H](NC(=O)CCCCCCN2CCN(S(=O)(=O)c3ccc(NC(=O)NCc4cccnc4)cc3)CC2)C(C)(C)C)cc1	> 10000	120	96	
Cc1ncsc1-c1ccc([C@H](C)NC(=O)[C@@H]2C[C@@H](O)CN2C(=O)[C@@H](NC(=O)CCCCCCCCCCCN2CCN(S(=O)(=O)c3ccc(NC(=O)NCc4cccnc4)cc3)CC2)C(C)(C)C)cc1	2.4	310	30	Activity [5]: Active; Activity [6]: Dose-Dependent Effect
O=S(=O)(c1ccc(NC(=S)NCc2cccnc2)cc1)N1CCCCC1			130	IC50 [15]: 4.6 µM; TGI [11]: 49.8%; Activity [12]: Non-Toxic
